Assay results as given in US8748369B2, “Use of targeted nitroxide agents in bone healing” (University of Pittsburgh-Of the Commonwealth System of …, priority 2009, dated 2014).
Where a SMILES comes first, the peptide text is derived from it. [ ]: non-standard residue; d: D form. The star is where a group is joined. NH(TEMPO-4-yl) = CC1(C)CC(N*)CC(C)(C)N1[O]; Orn = NCCC[C@H](N)C(=O)O; Cbz = O=C(OCc1ccccc1)*; Boc = CC(C)(C)OC(=O)*

How the values were obtained:
[1] = tested on: mice exposed to total body irradiation; assay: Survival of mice after total body irradiation; type: in vivo, mouse
Procedure: Mice received intraperitoneal injection of 10 mg. per kilogram of each of the chemicals indicated in FIG. 5, then 24 hours later received 9.75 Gy total body irradiation according to published methods. Mice were followed for survival according to IACUC regulations. […] (P=0.0008).
Groups of 15 mice received intraperitoneal injection of 10 mg. per kilogram of each indicated GS-nitroxide compound or carrier (Cremphora plus alcohol at 1 to 1 ratio, then diluted 1 to 10 in distilled water). Mice received 10 mg per kilogram intra-peritoneal injection 24 hours prior to total body irradiation. Control mice received radiation alone. […] (P=0.0005)

[2] = tested on: mouse embryonic cells, mitochondria; assay: EPR-based analysis of integration and distribution of nitroxides (Example 9); type: cell-based; conditions: 10 μM nitroxides for 10 min
Procedure: To compare the integration efficiency, mouse embryonic cells (1×10^7/mL) were incubated with 10 μM nitroxides for 10 min. ESR spectra of nitroxide radicals in the incubation medium, cell suspension or mitochondrial suspension were recorded after mixing with acetonitrile (1:1 v/v) after 5-min incubation with 2 mM K3Fe(CN)6 using JEOL-RE1X EPR spectrometer under the following conditions: 3350 G center field; 25 G scan range; 0.79 G field modulation, 20 mW microwave power; 0.1 s time constant; 4 min scan time. Integration efficiency was calculated as (Einitial−Emedium)/Einitial×100%. Mitochondria were isolated using a mitochondria isolation kit (Pierce, Rockford, Ill.) according to the manufacturer's instruction. Amounts of nitroxide radicals integrated into mitochondria were normalized to the content of cytochrome c oxidase subunit IV.

mouse embryonic cells = assay: Gamma irradiation induced superoxide generation and cardiolipin oxidation; type: cell-based; conditions: 10 Gy, 20 μM
Procedure: Oxidation-dependent fluorogenic dye, DHE was used to evaluate intracellular production of superoxide radicals. DHE is cell permeable and, in the presence of superoxide, is oxidized to fluorescent ethidium which intercalates into DNA. Briefly, cells were treated with 5 μM DHE for 30 min at the end of incubation. Cells were then collected by trypsinization and resuspended in PBS. The fluorescence of ethidium was measured using a FACScan flow cytometer (Becton-Dickinson, Rutherford, N.J.) supplied with the CellQuest software. Mean fluorescence intensity from 10,000 cells was acquired using a 585/42 nm bandpass filter.
CL hydroperoxides were determined by fluorescence HPLC of products formed in MP-11-catalyzed reaction with a fluorogenic substrate, Amplex Red. […] Shimadzu LC-100AT vp HPLC system equipped with fluorescence detector (RF-10Axl, Ex/Em=560/590 nm) and autosampler (SIL-10AD vp) were used for the analysis of products separated by HPLC (Eclipse XDB-C18 column, 5 μm, 150×4.6 mm) Mobile phase was composed of NaH2PO4 (25 mM, pH 7.0)/methanol (60:40 v/v).
(A) superoxide generation. […] Ethidium fluorescence was analyzed using a FACScan flow cytometer supplied with CellQuest software. Mean fluorescence intensity from 10,000 cells was acquired using a 585-nm bandpass filter. […] Cardiolipin hydroperoxides were determined using a fluorescent HPLC-based Amplex Red assay. […]

[3] = log octanal/water (Ko/w) partition coefficient; type: physicochemical
From the text: A practical skin patch is planned for delivery of JP4-039 or other compounds delivered herein. The patch can be administered to a subject before, during or after exposure to radiation, including 24 hr or later after irradiation exposure of the subject. In preliminary studies, we sought to characterize the absorption/penetration of a topically applied representative GS-Nitroxide XJB-5-125 in mouse skin. XJB-5-125 was selected as a potential topical agent based on its ability to inhibit ROS generation, inhibit apoptosis and suppress oxidative damage to mitochondrial lipids. […] The physical properties of a chemical are critical to its ability to penetrate into and through the skin. Two important factors are the log octanal/water (Ko/w) partition coefficient and the molecular weight. For XJB-5-125, the log Ko/w=4.5 and molecular weight is 956. The lipophilicity “rule” is based on the need for a compound to partition out of the lipophilic stratum corneum and into the more hydrophilic epidermis and dermis.

Row | Structure (SMILES) | survival of mice exposed to 9.75 Gy total body irradiation ([1]; 10 mg per kilogram intraperitoneal 24 hours before irradiation) | survival of mice exposed to 9.5 Gy total body irradiation ([1]; 10 mg per kilogram intraperitoneal 24 hours prior to irradiation) | integration into cells and mitochondria compared with non-conjugated 4-amino-TEMPO [2] | gamma irradiation induced cardiolipin peroxidation (mouse embryonic cells) | gamma irradiation induced superoxide generation (mouse embryonic cells; 10-min before or 1-h after irradiation) | log Ko/w [3]
1 | CC(C)C[C@@H](/C=C/CC(=O)NC1CC(C)(C)N([O])C(C)(C)C1)NC(=O)OC(C)(C)C [JP4-039, (S,E)-5-(tert-Butoxycarbonylamino)-7-methyloct-3-enoic acid-TEMPO] | significant increase in survival | increases survival |  |  |  | 
2 | CC(C)C[C@H](NC(=O)OC(C)(C)C)C(=O)N[C@H](Cc1ccccc1)C(=O)N1CCC[C@H]1C(=O)N[C@H](C(=O)N[C@@H](CCCNC(=O)OCc1ccccc1)C(=O)NC1CC(C)(C)N([O])C(C)(C)C1)C(C)C [XJB-5-125] (Boc-L[dF]PV[Orn](Cbz)-{NH(TEMPO-4-yl)}) |  |  | much more efficiently | protects | protects | 4.5
